Measurements published in patent publication US20080072338A1, “Animal for Drug Efficacy Evaluation, Method for Developing Chronic Obstructive Pulmonary Disease in Animal for Drug Efficacy Evaluation, and Method for Evaluating Drug Efficacy Using the Animal” (priority 2004, published 2008).

Test system: chronic obstructive pulmonary disease-model animal
Assay: Drug efficacy evaluation in the chronic obstructive pulmonary disease-model animal (change of respiratory function)
[1] = 10 mg/kg orally 1 hour before cigarette solution and LPS solution, guinea-pig, average values of 6 animals

## Cn1c(=O)c2[nH]cnc2n(C)c1=O [Theophylline, theophylline]
[1]
  Peak expiratory flow: 19.0 mL/s
  Respiratory minute rate: 124 breaths/min
  Respiratory minute volume: 457 mL/min
  Tidal volume: 3.7 mL
10 mg/kg orally, COPD-model guinea-pig
  Effect on respiration function (in words): improvement effect of respiration function
